Measurements reported in article PMC10673369, “Preliminary SAR of Novel Pleuromutilin–Polyamine Conjugates” (Microorganisms, 2023).
≈ marks a conversion by molar mass, not a printed value. Where “and” joins values, the source holds several entries; their conditions need not be identical. Equal values may be shown once. Each block holds one compound with its values, some of them ahead of it.

Assays:
[1] = system: S. aureus ATCC 25923; assay: MIC, broth dilution, S. aureus; type: cell-based; settings: Staphylococcus aureus, ATCC25923, mean (n = 3)
Protocol: (§1) The susceptibility of bacterial strains S. aureus (ATCC 25923), E. coli (ATCC 25922), and P. aeruginosa (ATCC 27853 or PAO1) to antibiotics and compounds was determined using reported protocols. Additional antimicrobial evaluation against MRSA (ATCC 43300), Klebsiella pneumoniae (ATCC 700603), A. baumannii (ATCC 19606), Candida albicans (ATCC 90028), and Cryptococcus neoformans (ATCC 208821) was undertaken at the Community for Open Antimicrobial Drug Discovery at The University of Queensland (Australia) according to their standard protocols as reported previously. […]
(§2) 2.3. Antimicrobial Assays
(§3) The susceptibility of bacterial strains S. aureus (ATCC 25923), E. coli (ATCC 25922), and P. aeruginosa (ATCC 27853 or PAO1) to antibiotics and compounds was determined in microplates using the standard broth dilution method in accordance with the recommendations of the Comité de l’AntibioGramme de la Société Française de Microbiologie (CA-SFM). Briefly, the minimal inhibitory concentrations (MICs) were determined with an inoculum of 10^5 CFU in 200 µL of Mueller–Hinton broth (MHB) containing two-fold serial dilutions of each drug. The MIC was defined as the lowest […]
(§4) determine all MICs, the measurements were independently repeated in triplicate. Additional antimicrobial evaluation against MRSA (ATCC 43300), Klebsiella pneumoniae (ATCC 700603), A. baumannii (ATCC 19606), Candida albicans (ATCC 90028), and Cryptococcus neoformans (ATCC 208821) was undertaken at the Community for Open Antimicrobial Drug Discovery at The University of Queensland (Australia) according to their standard protocols as reported previously. […]
(§5) For C. neoformans, resazurin was added at 0.006% final concentration to each well and incubated for a further 3 h before MICs were determined by measuring […]
(§6) Colistin and vancomycin were used as positive bacterial inhibitor standards for Gram-negative and Gram-positive bacteria, respectively. Fluconazole was used as a positive fungal inhibitor standard for C. albicans and C. neoformans. The antibiotics were provided in […], with 3 above and 3 below its MIC value, and plated into the first 8 wells of column 23 of the 384-well NBS plates. The quality control (QC) of the assays was determined by the antimicrobial controls and the Z'-factor (using positive and negative controls). Each plate was deemed to fulfil the quality criteria (pass QC) if the Z'- […]
(§7) inhibition at their highest concentration, and no growth inhibition at their lowest concentration.
(§8) 2.4. Determination of the MICs of Antibiotics in the Presence of Synergizing Compounds

[2] = system: E. coli ATCC 25922; assay: MIC, broth dilution, E. coli; type: cell-based, Escherichia coli; settings: Escherichia coli, ATCC25922, mean (n = 3)
Protocol: as §1, §2, §3, §4

[3] = system: P. aeruginosa PAO1; assay: MIC, broth dilution, P. aeruginosa PAO1; type: cell-based; settings: Pseudomonas aeruginosa, mean (n = 3)
Protocol: as §1, §2, §3, §4, §5, §6, §7, §8

[4] = system: Staphylococcus aureus; set-up: method as in PMID 16589015, PMID 22070694, PMID 22191527; settings: cited from earlier work
[5] = system: Mycobacterium smegmatis; set-up: method as in PMID 16589015, PMID 22070694, PMID 22191527; settings: cited from earlier work
[6] = system: Escherichia coli; set-up: method as in PMID 16589015, PMID 22070694, PMID 22191527; settings: cited from earlier work
[7] = system: P. aeruginosa ATCC 27853; assay: MIC of antibiotic alone, P. aeruginosa ATCC 27853; type: cell-based
Protocol: as §1, §2, §3, §5

[8] = system: C. albicans ATCC 90028; assay: MIC, CO-ADD antifungal assay, C. albicans; type: cell-based, Candida albicans; settings: Candida albicans, ATCC90028, mean (n = 2)
Protocol: as §1, §2
(§9) The susceptibility of bacterial strains S. aureus (ATCC 25923), E. coli (ATCC 25922), and P. […]
(§10) baumannii (ATCC 19606), Candida albicans (ATCC 90028), and Cryptococcus neoformans (ATCC 208821) was undertaken at the Community for Open Antimicrobial Drug Discovery at The University of Queensland (Australia) according to their standard protocols as reported previously. […]
(§11) For the antifungal assay, fungi strains were cultured for 3 days on YPD agar at 30 °C. A yeast suspension of 1 × 106 to 5 × 10^6 CFU/mL was prepared from five colonies. These stock suspensions were diluted with yeast nitrogen base (YNB) (Becton Dickinson, 233520) broth to a final concentration of 2.5 × 10^3 CFU/mL. The compounds were serially diluted 2-fold across the wells of 96-well plates (Corning 3641, non-binding surface), with compound concentrations ranging from 0.015 to 64 µg/mL and final volumes of 50 µL, plated in duplicate. Then, 50 µL of the fungi suspension that was previously prepared in YNB broth to the final concentration of 2.5 × 10^3 CFU/mL was added to each well of the compound-containing plates, giving a final compound concentration range of 0.008 to 32 µg/mL. Plates were covered and incubated at 35 °C for 36 h without shaking. C. albicans MICs were determined by measuring the absorbance at OD530. For C. neoformans, resazurin was added at 0.006% final concentration to each well and incubated for a further 3 h before MICs were determined by measuring […]
as §6, §7, §8

[9] = system: C. neoformans ATCC 208821; assay: MIC, CO-ADD antifungal assay, C. neoformans; type: cell-based, Cryptococcus neoformans; settings: Cryptococcus neoformans, ATCC208821, mean (n = 2)
Protocol: as §1, §2, §9, §10, §11, §6, §7, §8

[10] = Cytotoxicity assay, HEK293; type: cell-based; settings: human; HEK293 cells; mean (n = 2); read-out: Cytotoxicity (IC50), concentration of compound at 50% cytotoxicity
Protocol: Cytotoxicity assays were conducted using reported protocols (see Supplementary File). […]
HEK293 cells were counted manually in a Neubauer hemocytometer and plated at a density of 5,000 cells/well into each well of the 384-well plates containing the 25x (2 µL) concentrated compounds [26,27]. The medium used was Dulbecco's modified Eagle’s medium (DMEM), supplemented with 10% fetal bovine serum (FBS). Cells were incubated together with the compounds for 20 h at 37 °C, 5% CO2.
(§12) To measure cytotoxicity, 5 µL (equals 100 µM final) of resazurin was added to each well after incubation and incubated for further 3 h at 37 °C with 5% CO2. After the final incubation, fluorescence intensity […]
reader. CC50 values (concentration at 50% cytotoxicity) were calculated by normalizing the fluorescence readout, with 74 µg/mL tamoxifen as negative control (0%) and normal cell growth as positive control (100%). The concentration-dependent percentage cytotoxicity was fitted to a dose–response function (using Pipeline Pilot) and CC50 values were determined. […]

[11] = system: MRSA ATCC 43300; assay: MIC, CO-ADD broth microdilution, MRSA; type: cell-based, methicillin-resistant S. aureus; settings: Staphylococcus aureus, read-out: MIC MRSA
Protocol: as §1, §2, §9
baumannii (ATCC 19606), Candida albicans (ATCC 90028), and Cryptococcus neoformans (ATCC 208821) was undertaken at the Community for Open Antimicrobial Drug Discovery at The University of Queensland (Australia) according to their standard protocols as reported previously. For antimicrobial assays, the tested strains were cultured in either Luria broth (LB) (In Vitro Technologies, USB75852), nutrient broth (NB) (Becton Dickson, 234000), or MHB at 37 °C overnight. A sample of culture was then diluted 40-fold in fresh MHB and incubated at 37 °C for 1.5−2 h. The compounds were serially diluted 2-fold across the wells of 96-well plates (Corning 3641, non-binding surface), with compound concentrations ranging from 0.015 to 64 µg/ mL, and plated in duplicate. The resultant mid-log phase cultures were diluted to the final concentration of 1 × 10^6 CFU/mL; then, 50 µL was added to each well of the compound-containing plates, giving a final compound concentration range of 0.008 to 32 µg/mL and a cell density of 5 × 10^5 CFU/mL. All plates were then covered and incubated at 37 °C for 18 h. Resazurin was added at 0.001% final concentration to each well and incubated for 2 h before MICs […]
as §5, §6, §7, §8

[12] = set-up: method as in PMID 22070694, PMID 31480231; settings: phase I clinical trials; cited from earlier work
[13] = system: P. aeruginosa PAO1; assay: Nitrocefin hydrolysis assay (outer membrane permeabilization); type: cell-based; settings: polymyxin B at 98.3 μM ([…])
Protocol: Nitrocefin assays were conducted using reported protocols (see Supplementary File).
We also examined the ability of 9e to act as membrane disruptor of the Gram-negative bacteria P. aeruginosa PAO1 (Figure 5), using a nitrocefin colorimetric assay. This assay makes use of a chromogenic cephalosporin derivative, which in the presence of an outer membrane disruptor gains entry to the periplasm, where upon the action of β-lactamases leads to substrate hydrolysis with a detectable color change from yellow to red.
Briefly, restoring enhancer concentrations were determined with an inoculum of 5x10^5 CFU in 200 µL of MHB containing two-fold serial dilutions of each derivative in the presence of doxycycline at 4.5 […]
The lowest concentration of the polyamine
These measurements were independently repeated in triplicate.
Outer membrane permeabilization was measured using nitrocefin as a chromogenic substrate of periplasmic β-lactamase. […] Nitrocefin hydrolysis was monitored spectrophotometrically by measuring the increase in absorbance at 490 nm. […]
HEK293 cells were counted manually in a Neubauer hemocytometer and plated at a density of 5,000 cells/well into each well of the 384-well plates containing the 25x (2 µL) concentrated compounds [26,27]. […]
as §12
reader. […] The concentration-dependent percentage cytotoxicity was fitted to a dose–response function (using Pipeline Pilot) and CC50 values were determined.
Human whole blood was washed three times with three volumes of 0.9% NaCl and then resuspended in the same solution to a concentration of 0.5 x 10^8 cells/mL, as determined by the manual cell count in a Neubauer hemocytometer. […] Hemolysis was determined by measuring the supernatant absorbance at […] (OD405). The absorbance was measured using a Tecan M1000 Pro monochromator plate reader. […]

- MIC [1]: 3.12 µM
- MIC [2]: 400 µM (≈ 151 µg/mL)
- MIC [3]: 800 µM
Compound: C=C[C@]1(C)C[C@@H](OC(=O)CO)[C@]2(C)[C@H](C)CC[C@]3(CCC(=O)[C@H]32)[C@@H](C)[C@@H]1O [Compound 1, pleuromutilin]
- Antibacterial activity against Staphylococcus aureus [4]: bactericidal activity
- Antibacterial activity against Mycobacterium smegmatis [5]: moderate activity
- Antibacterial activity against Escherichia coli [6]: no effect

Compound: O=C(N[C@H](CO)[C@H](O)c1ccc([N+](=O)[O-])cc1)C(Cl)Cl [chloramphenicol, reference compound]
- MIC [1]: 1.5 to 3 µM

- MIC of antibiotic alone [7]: 90 μM and 40 μg/mL
Compound: C[C@H]1c2cccc(O)c2C(=O)C2=C(O)[C@]3(O)C(=O)C(C(N)=O)=C(O)[C@@H](N(C)C)[C@@H]3[C@@H](O)[C@@H]21 [doxycycline]

Compound: OC(Cn1cncn1)(Cn1cncn1)c1ccc(F)cc1F [fluconazole, reference compound]
- MIC [8]: 0.4 µM
- MIC [9]: 26 µM

Compound: [H]/N=C(/N)N[C@H]1[C@H](O)[C@@H](O)[C@H](O[C@@H]2O[C@@H](C)[C@](O)(C=O)[C@H]2O[C@@H]2O[C@@H](CO)[C@H](O)[C@@H](O)[C@@H]2NC)[C@@H](N/C(N)=N\[H])[C@@H]1O [streptomycin, reference compound]
- MIC [1]: 21.5 µM
- MIC [2]: 21.5 µM (≈ 12.5 µg/mL)
- MIC [3]: 21.5 µM

Compound: CC/C(=C(\c1ccccc1)c1ccc(OCCN(C)C)cc1)c1ccccc1 [tamoxifen, reference compound]
- IC50 at 20 h [10]: 24 µM

Compound: CN[C@H](CC(C)C)C(=O)N[C@H]1C(=O)N[C@@H](CC(N)=O)C(=O)N[C@H]2C(=O)N[C@H]3C(=O)N[C@H](C(=O)N[C@H](C(=O)O)c4cc(O)cc(O)c4-c4cc3ccc4O)[C@H](O)c3ccc(c(Cl)c3)Oc3cc2cc(c3O[C@@H]2O[C@H](CO)[C@@H](O)[C@H](O)[C@H]2O[C@H]2C[C@](C)(N)[C@H](O)[C@H](C)O2)Oc2ccc(cc2Cl)[C@H]1O [vancomycin, reference compound]
- MIC [11]: 0.7 µM

Compound: azamulin [Compound 4]
- Bioavailability [12]: poor bioavailability

Compound: polymyxin B
- Outer membrane perturbation (nitrocefin hydrolysis) [13]: potent ability to perturb the outer membrane
